Measurements: ChEMBL document CHEMBL1201862, “PubChem BioAssay data set” (2004)
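A five-concentration, 48-hour dose response in 96-well plates underlies each endpoint, interpolated linearly between surrounding concentrations. Here, GI50 denotes the concentration required for 50% inhibition of growth.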 Active and inactive are the calls of the source. Cut-off read from the data, not from the text of the source: active = GI50 up to about 1.1 µM and inactive = higher.

Legend:
Assay in all cases: DTP human tumour cell line panel, 48 h
OVCAR-8 = system: OVCAR-8
HCT-116 = system: HCT-116
HCT-15 = system: HCT-15
ACHN = system: ACHN
KM-20L2 = system: KM-20L2
NCI-H522 = system: NCI-H522
XF498 = system: XF498
LXFL 529 = system: LXFL 529
UACC-62 = system: UACC-62
HL-60 = system: HL-60
LOX IMVI = system: LOX IMVI
KM12 = system: KM12
NCI-H226 = system: NCI-H226
UACC-257 = system: UACC-257
MOLT-4 = system: MOLT-4
EKVX = system: EKVX
SF-295 = system: SF-295
A498 = system: A498
786-0 = system: 786-0
NCI-H460 = system: NCI-H460
SK-MEL-28 = system: SK-MEL-28
RXF 393 = system: RXF 393
OVCAR-4 = system: OVCAR-4
CAKI-1 = system: CAKI-1
M19-MEL = system: M19-MEL
K562 = system: K562
OVCAR-3 = system: OVCAR-3
U-251 = system: U-251
HT-29 = system: HT-29
SNB-75 = system: SNB-75
SNB-19 = system: SNB-19
SR = system: SR
SK-OV-3 = system: SK-OV-3
HOP-62 = system: HOP-62
SF-268 = system: SF-268
SW-620 = system: SW-620
Malme-3M = system: Malme-3M
NCI-H23 = system: NCI-H23
HCC 2998 = system: HCC 2998
SK-MEL-2 = system: SK-MEL-2
OVCAR-5 = system: OVCAR-5
UO-31 = system: UO-31
COLO 205 = system: COLO 205
IGROV-1 = system: IGROV-1
SK-MEL-5 = system: SK-MEL-5
DMS-114 = system: DMS-114
DMS-273 = system: DMS-273
DLD-1 = system: DLD-1
CCRF-CEM = system: CCRF-CEM
RPMI-8226 = system: RPMI-8226
TK-10 = system: TK-10
SN12C = system: SN12C
A549 = system: A549
M14 = system: M14
HOP-92 = system: HOP-92
SF-539 = system: SF-539
SNB-78 = system: SNB-78

O=C(/C=N/O)Nc1cccc(Cl)c1I
GI50 (OVCAR-8): 81.5 µM (inactive)
GI50 (HCT-116): 53.6 µM (inactive)
GI50 (HCT-15): 79.1 µM
GI50 (ACHN): 57.4 µM (inactive)
GI50 (KM-20L2): > 100 µM (inactive)
GI50 (NCI-H522): 26.1 µM (inactive)
GI50 (XF498): 46.3 µM (inactive)
GI50 (LXFL 529): 25 µM (inactive)
GI50 (UACC-62): 43.1 µM (inactive)
GI50 (HL-60): 34.4 µM (inactive)
GI50 (LOX IMVI): 96.8 µM (inactive)
GI50 (KM12): 65.6 µM (inactive)
GI50 (NCI-H226): > 100 µM (inactive)
GI50 (UACC-257): 56.9 µM (inactive)
GI50 (MOLT-4): 42.3 µM (inactive)
GI50 (EKVX): 8.83 µM (inactive)
GI50 (SF-295): 50.7 µM (inactive)
GI50 (A498): 27.7 µM (inactive)
GI50 (786-0): > 100 µM (inactive)
GI50 (NCI-H460): > 100 µM (inactive)
GI50 (SK-MEL-28): > 100 µM (inactive)
GI50 (RXF 393): 23.7 µM (inactive)
GI50 (OVCAR-4): 28.9 µM (inactive)
GI50 (CAKI-1): 32.3 µM (inactive)
GI50 (M19-MEL): 80.7 µM (inactive)
GI50 (K562): 53.5 µM (inactive)
GI50 (OVCAR-3): 30.1 µM (inactive)
GI50 (U-251): 39.2 µM (inactive)
GI50 (HT-29): > 100 µM (inactive)
GI50 (SNB-75): 12.8 µM (inactive)
GI50 (SNB-19): 55.7 µM (inactive)
GI50 (SR): 30.7 µM (inactive)
GI50 (SK-OV-3): 28.5 µM (inactive)
GI50 (HOP-62): 83.4 µM (inactive)
GI50 (SF-268): 35.9 µM (inactive)
GI50 (SW-620): > 100 µM (inactive)
GI50 (Malme-3M): 40.6 µM (inactive)
GI50 (NCI-H23): 59.2 µM (inactive)
GI50 (HCC 2998): > 100 µM (inactive)
GI50 (SK-MEL-2): 24.9 µM (inactive)
GI50 (OVCAR-5): > 100 µM (inactive)
GI50 (UO-31): 23.9 µM (inactive)
GI50 (COLO 205): 89.9 µM (inactive)
GI50 (IGROV-1): 26.5 µM (inactive)
GI50 (SK-MEL-5): 40.8 µM (inactive)
GI50 (DMS-114): 23.3 µM (inactive)
GI50 (DMS-273): > 100 µM (inactive)
GI50 (DLD-1): 63.4 µM (inactive)
GI50 (CCRF-CEM): 49.1 µM (inactive)
GI50 (RPMI-8226): 30.6 µM (inactive)
GI50 (TK-10): 44.7 µM (inactive)
GI50 (SN12C): 47.8 µM (inactive)
GI50 (A549): 46 µM (inactive)
GI50 (M14): 47.2 µM (inactive)

O=C(c1ccc([N+](=O)[O-])cc1[N+](=O)[O-])N(/N=C/C=C/c1ccccc1)c1nnc(-c2ccccc2)c(-c2ccccc2)n1
GI50 (OVCAR-8): 22.7 µM (inactive)
GI50 (HCT-15): 29 µM
GI50 (ACHN): 24.3 µM (inactive)
GI50 (KM-20L2): > 100 µM (inactive)
GI50 (NCI-H522): 22 µM (inactive)
GI50 (XF498): 17.6 µM (inactive)
GI50 (UACC-62): 20.6 µM (inactive)
GI50 (HL-60): 21.6 µM (inactive)
GI50 (LOX IMVI): 35.7 µM (inactive)
GI50 (KM12): 34.8 µM (inactive)
GI50 (NCI-H226): 32.7 µM (inactive)
GI50 (UACC-257): 31.5 µM (inactive)
GI50 (HOP-92): 20.5 µM (inactive)
GI50 (MOLT-4): 23.6 µM (inactive)
GI50 (EKVX): 36.4 µM (inactive)
GI50 (SF-295): 30.5 µM (inactive)
GI50 (A498): 30.5 µM (inactive)
GI50 (786-0): 21 µM (inactive)
GI50 (NCI-H460): 34 µM (inactive)
GI50 (SK-MEL-28): 27.3 µM (inactive)
GI50 (RXF 393): 22.8 µM (inactive)
GI50 (OVCAR-4): 20.8 µM (inactive)
GI50 (CAKI-1): 25.4 µM (inactive)
GI50 (SF-539): 15.2 µM (inactive)
GI50 (M19-MEL): 36.7 µM (inactive)
GI50 (K562): 20.1 µM (inactive)
GI50 (OVCAR-3): 21 µM (inactive)
GI50 (U-251): 40.3 µM (inactive)
GI50 (HT-29): 46 µM (inactive)
GI50 (SNB-75): 28.8 µM (inactive)
GI50 (SNB-19): 94.4 µM (inactive)
GI50 (SK-OV-3): 74.8 µM (inactive)
GI50 (HOP-62): 86.1 µM (inactive)
GI50 (SF-268): 40.7 µM (inactive)
GI50 (SW-620): 44.4 µM (inactive)
GI50 (Malme-3M): 43.8 µM (inactive)
GI50 (NCI-H23): 27 µM (inactive)
GI50 (HCC 2998): 31.6 µM (inactive)
GI50 (SK-MEL-2): 31 µM (inactive)
GI50 (OVCAR-5): > 100 µM (inactive)
GI50 (UO-31): 18.5 µM (inactive)
GI50 (COLO 205): 41.6 µM (inactive)
GI50 (IGROV-1): 42.1 µM (inactive)
GI50 (SK-MEL-5): 30.6 µM (inactive)
GI50 (DMS-114): 29.2 µM (inactive)
GI50 (DMS-273): 23.7 µM (inactive)
GI50 (DLD-1): 34.8 µM (inactive)
GI50 (CCRF-CEM): 24.5 µM (inactive)
GI50 (RPMI-8226): 20.5 µM (inactive)
GI50 (TK-10): 27.2 µM (inactive)
GI50 (SN12C): 63.7 µM (inactive)
GI50 (A549): 29.4 µM (inactive)
GI50 (M14): 30.6 µM (inactive)

O=C1C[C@H]2CC3(CC[C@H]2CN1)OCCO3
GI50 (OVCAR-8): > 100 µM (inactive)
GI50 (HCT-116): > 100 µM (inactive)
GI50 (HCT-15): > 100 µM
GI50 (NCI-H522): > 100 µM (inactive)
GI50 (XF498): > 100 µM (inactive)
GI50 (LXFL 529): > 100 µM (inactive)
GI50 (UACC-62): > 100 µM (inactive)
GI50 (HL-60): > 100 µM (inactive)
GI50 (LOX IMVI): > 100 µM (inactive)
GI50 (KM12): > 100 µM (inactive)
GI50 (SNB-78): > 100 µM (inactive)
GI50 (UACC-257): > 100 µM (inactive)
GI50 (HOP-92): > 100 µM (inactive)
GI50 (MOLT-4): > 100 µM (inactive)
GI50 (EKVX): > 100 µM (inactive)
GI50 (SF-295): > 100 µM (inactive)
GI50 (A498): > 100 µM (inactive)
GI50 (786-0): > 100 µM (inactive)
GI50 (NCI-H460): > 100 µM (inactive)
GI50 (SK-MEL-28): > 100 µM (inactive)
GI50 (RXF 393): > 100 µM (inactive)
GI50 (OVCAR-4): > 100 µM (inactive)
GI50 (CAKI-1): > 100 µM (inactive)
GI50 (SF-539): > 100 µM (inactive)
GI50 (M19-MEL): > 100 µM (inactive)
GI50 (K562): > 100 µM (inactive)
GI50 (OVCAR-3): > 100 µM (inactive)
GI50 (U-251): > 100 µM (inactive)
GI50 (HT-29): > 100 µM (inactive)
GI50 (SNB-75): > 100 µM (inactive)
GI50 (SNB-19): > 100 µM (inactive)
GI50 (SK-OV-3): > 100 µM (inactive)
GI50 (HOP-62): > 100 µM (inactive)
GI50 (SF-268): > 100 µM (inactive)
GI50 (SW-620): > 100 µM (inactive)
GI50 (Malme-3M): > 100 µM (inactive)
GI50 (NCI-H23): > 100 µM (inactive)
GI50 (HCC 2998): > 100 µM (inactive)
GI50 (SK-MEL-2): > 100 µM (inactive)
GI50 (UO-31): > 100 µM (inactive)
GI50 (COLO 205): > 100 µM (inactive)
GI50 (IGROV-1): > 100 µM (inactive)
GI50 (SK-MEL-5): > 100 µM (inactive)
GI50 (DMS-273): > 100 µM (inactive)
GI50 (DLD-1): > 100 µM (inactive)
GI50 (CCRF-CEM): > 100 µM (inactive)
GI50 (RPMI-8226): > 100 µM (inactive)
GI50 (TK-10): > 100 µM (inactive)
GI50 (SN12C): > 100 µM (inactive)
GI50 (A549): > 100 µM (inactive)
GI50 (M14): > 100 µM (inactive)
